Patent publication US9956211B2, “Pharmaceutical compositions comprising a local anaesthetic such as bupivacaine for local administration to the mouth or throat” (MOBERG PHARMA AB, priority 2011, dated 2018)
Where two headings read alike, the source gives them in different places. Blank lines part the entries; values can stand above or below the compound they belong to.

Assays:
[1] = cited from earlier work
[2] = Activity after heating during the casting process; assay type: physicochemical; conditions: heated at up to 180° C. during the casting process
[3] = Pilot study Aarhus: kinetics, non-intact mucosa; assay type: in vivo, human; conditions: 25 mg lozenge, three head or neck cancer patients, stage 3 mucositis, non-intact oral mucosa
Method: The study was conducted over 2-3 hours on three patients from Aarhus University hospital. The patients were suffering from head or neck cancer with stage 3 mucositis with a non-intact oral mucosa. The aim of the study was to investigate the pharmacokinetics of bupivacaine by topical oral administration of a 25 mg lozenge. A baseline blood sample was taken, followed by administration of the lozenge, and then blood samples were taken at 0 min (i.e. when the lozenge is completely dissolved in the mouth), 15 min, 30 min, 45 min, 60 min, 75 min, 90 min, 105 min, 120 min, 150 min and 180 min.

[4] = Study VII: single dose kinetics, fasting; assay type: in vivo, human; conditions: 25 mg compressed lozenge, fasting vs not fasting
Method: The single dose kinetics was conducted over 10 hours. The subjects had been fasting from 12 pm the night before the study began. The subjects were administrated a compressed lozenge containing 25 mg of bupivacaine. The blood collection began at approximately 7 am.
In our previous results we have seen an extra peak. The aim of this study was to investigate if the extra peak was from gastrointestinal absorption.
Baseline blood sample. Administration of lozenge. Blood sample at the following times: 0 min, 15 min, 30 min, 45 min, 60 min, 75 min, 90 min, 105 min, 120 min, 150 min, 180 min, 210 min, 240 min, 300 min, 360 min, 420 min, 480 min, 540 min and 600 min. (Time 0 minutes is when the lozenge is completely dissolved in the mouth.)

[5] = safety pharmacology, single and repeated dose toxicity, reproduction toxicity, mutagenic potential, local toxicity; cited from earlier work
[6] = Study II: multiple doses kinetics; assay type: in vivo, human; conditions: 25 mg lozenge four times a day, 72 hours
Method: (§1) These are prospective, descriptive studies. The subjects were ten healthy young males. Samples of full blood were taken in lithium-heparin pipes for anticoagulant effect. After the blood sample is collected it is centrifuged at 2500 rounds per minute for 15 minutes at 4° C. Approximately 1 ml plasma is taken from the sample and put into vials and right away put into a −80° C. freezer, where it is kept until analysis.
The multiple doses study was conducted over 72 hours consecutively, where the subjects were administrated a lozenge containing 25 mg of bupivacaine four times a day in the awake hours.
The aim of the study was to measure the concentration of bupivacaine in the blood after absorption from an intact oral mucosa after administration of a lozenge containing 25 mg of bupivacaine given four times a day. […] Therefore the lozenges were administered at 8 am, […], 6 pm and 10 pm, to give a total daily dose of 100 mg bupivacaine.
The subjects drank 250 ml water to remove any traces of coffee, cola or other potential absorption enhancers. After 10 minutes a compressed lozenge was administered.

[7] = Study I: single dose kinetics of compressed bupivacaine lozenge; assay type: in vivo, human
Method: Bupivacaine has not been used as local oral administration before.
The purpose of this study is to investigate the pharmacokinetics of bupivacaine after topical oral administration. The plasma concentration of bupivacaine is measured after absorption over an intact oral mucosa after administration of a compressed lozenge containing respectively 5, 10, 25 and 50 mg bupivacaine as a single dose and 25 mg as multiple doses.
as §1
The aim of the study was to investigate the pharmacokinetics of bupivacaine by topical oral administration. The concentration of bupivacaine was measured in the blood after absorption from an intact oral mucosa after administration of a compressed lozenge containing respectively 5, 10 or 25 mg of bupivacaine. On study days 1, 2, 3 and 4 (interspersed with single wash-out days) the subjects were given one 5 mg lozenge, one 10 mg lozenge, one 25 mg lozenge or two 25 mg lozenges, respectively.
Before the study began, the subjects drank 250 ml water to remove any traces of coffee, cola or other potential absorption enhancers. After 10 minutes a compressed lozenge was administered. […] A baseline blood sample was taken, the lozenge was administered and then blood samples were taken at 0 min (i.e. when the lozenge has completely dissolved in the mouth, 15 min, 30 min, 45 min, 60 min, 75 min, 90 min, 105 min, 120 min, 150 min, 180 min, 210 min, 240 min, 270 min, 300 min, 330 min and 360 min.

[8] = plasma concentration; cited from earlier work
[9] = standard aqueous medium, pH7.4, 25° C.

Compound: CCCN1CCCC[C@H]1C(=O)Nc1c(C)cccc1C [ropivacaine]
octanol/water partition coefficient [1, 9]: 115

Compound: levobupivacaine
octanol/water partition coefficient ([1]; pH 7.4): 346

activity after heating [2]: retains full activity
maximum plasma concentration of bupivacaine [3]: below 700 ng/ml
influence of fasting on plasma level [4]: did not influence the results
accumulation in the body [6]: not being accumulated in the body
discomfort ([7]; 5 mg and 10 mg compressed lozenge): none of them felt any discomfort
discomfort, especially in the pharynx ([7]; 25 mg compressed lozenge): some of the subjects felt discomfort
discomfort ([7]; 50 mg (two 25 mg lozenges)): discomfort was further increased
maximum bupivacaine plasma concentration ([7]; maximum dosage 50 mg (two 25 mg compressed lozenges), single dose, intact oral mucosa, healthy subjects): less than 600 ng/ml
Compound: CCCCN1CCCCC1C(=O)Nc1c(C)cccc1C (stereo not drawn) [bupivacaine, 1-butyl-N-(2,6-dimethylphenyl)piperidine-2-carboxamide]
risks for humans from preclinical safety data [5]: no special risks for humans
peak plasma concentrations [6]: lower than the toxic level
octanol/water partition coefficient [1, 9]: 346
anesthetic effect felt ([7]; 5 mg and 10 mg compressed lozenge, healthy subjects): felt the anesthetic effect
side effects ([7]; 5, 10, 25 and 50 mg single doses): None of the subjects experienced any side effects
toxic level in man [8]: 2 to 4 µg/mL

Compound: CCCN(CC)C(CC)C(=O)Nc1c(C)cccc1C (stereo not drawn) [etidocaine]
octanol/water partition coefficient [1, 9]: 800

Compound: CCOC(=O)c1ccc(N)cc1 [benzocaine]
octanol/water partition coefficient [1, 9]: 81
